Test results published in patent US10253015B2, “Pyridinyl quinolinone derivatives as mutant-isocitrate dehydrogenase inhibitors” (FORMA TM2, Inc., priority 2014, dated 2019).

Each compound was assayed against IDH1-R132H recombinant protein (Homo sapiens (Human), UniProt O75874, R132H) (assay: IDH1-R132H enzymatic assay). Conditions: inhibition of NADPH consumption, diaphorase/resazurin readout; read-out: Enzyme IDH1 R132H Range IC50.
IDH1-R132H recombinant protein, sequence (O75874 whole entry R132H): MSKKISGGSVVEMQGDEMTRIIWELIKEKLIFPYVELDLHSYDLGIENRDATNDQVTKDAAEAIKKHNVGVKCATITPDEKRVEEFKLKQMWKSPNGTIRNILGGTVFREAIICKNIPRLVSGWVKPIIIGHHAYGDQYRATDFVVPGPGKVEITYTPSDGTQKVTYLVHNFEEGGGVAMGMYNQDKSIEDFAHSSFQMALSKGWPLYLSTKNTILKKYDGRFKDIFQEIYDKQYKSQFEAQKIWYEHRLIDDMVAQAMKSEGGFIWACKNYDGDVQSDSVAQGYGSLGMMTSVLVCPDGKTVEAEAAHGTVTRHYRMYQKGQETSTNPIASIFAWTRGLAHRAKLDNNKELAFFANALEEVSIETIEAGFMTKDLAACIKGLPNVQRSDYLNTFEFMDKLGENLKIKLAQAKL
Type: biochemical
Experimental: Assays were performed in a 384-well black plate. […] After the plate was centrifuged briefly, an aliquot of 10 μL of 2 mM α-ketoglutarate and 20 μM NADPH solution prepared in assay buffer was then added to each well and the reaction was maintained at 25° C. for 45 minutes. An aliquot of 10 μL of diaphorase solution (0.15 U/mL diaphorase and 30 μM Resazurin in assay buffer) was added to each well. […] The IC50 of a given compound was calculated by fitting the dose response curve of inhibition of NADPH consumption at a given concentration with the four parameter logistic equation.
An IC50 of 1000 to 10000 nM was found for `N#Cc1ccnc(NCc2cc3cc(Cl)ccc3[nH]c2=O)c1` [Compound I-72, 2-{[(6-chloro-2-oxo-1,2-dihydroquinolin-3-yl)methyl]amino}pyridine-4-carbonitrile] in this work.
An IC50 of 100 to 1000 nM was found for `CC(C)c1cccnc1NCc1cc2cc(Cl)ccc2[nH]c1=O` [Compound I-68, 6-chloro-3-({[3-(propan-2-yl)pyridin-2-yl]amino}methyl)-1,2-dihydroquinolin-2-one] in this work.
An IC50 of 100 to 1000 nM was found for `Cc1cc2cc(CNc3ccc(C#N)cn3)c(=O)[nH]c2cc1C` [Compound I-80, 6-{[(6,7-dimethyl-2-oxo-1,2-dihydroquinolin-3-yl)methyl]amino}pyridine-3-carbonitrile] in this work.
An IC50 of 1000 to 10000 nM was found for `O=c1[nH]c2ccc(Cl)cc2cc1CNc1ccc(F)cn1` [Compound I-71, 6-chloro-3-{[(5-fluoropyridin-2-yl)amino]methyl}-1,2-dihydroquinolin-2-one] in this work.
In the case of `COc1ccc2[nH]c(=O)c(CNc3cc(C)ccn3)cc2c1` [Compound I-82, 6-methoxy-3-{[(4-methylpyridin-2-yl)amino]methyl}-1,2-dihydroquinolin-2-one], the IC50 is reported as > 10000 nM.
`CC(C)C1CCCN1c1nc(NCc2cc3cc(Cl)ccc3[nH]c2=O)ccc1C#N` (stereo not drawn) [Compound I-64, 6-{[(6-chloro-2-oxo-1,2-dihydroquinolin-3-yl)methyl]amino}-2-[2-(propan-2-yl)pyrrolidin-1-yl]pyridine-3-carbonitrile] was tested, and the IC50 was > 10000 nM.
An IC50 of 1000 to 10000 nM was found for `Cc1cc(C)nc(NCc2cc3cc(Cl)ccc3[nH]c2=O)c1` [Compound I-69, 6-chloro-3-{[(4,6-dimethylpyridin-2-yl)amino]methyl}-1,2-dihydroquinolin-2-one] in this work.
`N#Cc1ccc(NCc2cc3cc(Cl)ccc3[nH]c2=O)nc1N1CCOC1=O` [Compound I-63, 6-{[(6-chloro-2-oxo-1,2-dihydroquinolin-3-yl)methyl]amino}-2-(2-oxo-1,3-oxazolidin-3-yl)pyridine-3-carbonitrile] was tested, and the IC50 was > 10000 nM.
An IC50 of 1000 to 10000 nM was found for `Cc1cn(-c2ccnc(N[C@@H](C)c3cc4cc(Cl)ccc4[nH]c3=O)c2F)cn1` [Compound I-38, 6-chloro-3-[(1S)-1-{[3-fluoro-4-(4-methyl-1H-imidazol-1-yl)pyridin-2-yl]amino}ethyl]-1,2-dihydroquinolin-2-one] in this work.
An IC50 of 1000 to 10000 nM was found for `COc1ccc2[nH]c(=O)c(CNc3ccc(C#N)cn3)cc2c1` [Compound I-81, 6-{[(6-methoxy-2-oxo-1,2-dihydroquinolin-3-yl)methyl]amino}pyridine-3-carbonitrile] in this work.
An IC50 of 100 to 1000 nM was found for `Cc1nc(NCc2cc3cc(Cl)c(OCc4ccccn4)cc3[nH]c2=O)ccc1C#N` [Compound I-84, 6-({[6-chloro-2-oxo-7-(pyridin-2-ylmethoxy)-1,2-dihydroquinolin-3-yl]methyl}amino)-2-methylpyridine-3-carbonitrile] in this work.
In the case of `CC(C)n1nccc1-c1ccnc(N[C@@H](C)c2cc3cc(Cl)ccc3[nH]c2=O)c1F` [Compound I-57, 6-chloro-3-[(1S)-1-({3-fluoro-4-[1-(propan-2-yl)-1H-pyrazol-5-yl]pyridin-2-yl}amino)ethyl]-1,2-dihydroquinolin-2-one], the IC50 is reported as > 10000 nM.
An IC50 of 100 to 1000 nM was found for `Cc1nc(NC(C)(C)c2cc3cc(Cl)ccc3[nH]c2=O)ccc1C#N` [Compound I-32, 6-{[2-(6-chloro-2-oxo-1,2-dihydroquinolin-3-yl)propan-2-yl]amino}-2-methylpyridine-3-carbonitrile] in this work.
An IC50 of 1000 to 10000 nM was found for `C[C@H](Nc1cc(F)cc(N2CCOC2=O)n1)c1cc2cc(Cl)ccc2[nH]c1=O` [Compound I-16, 6-chloro-3-[(1S)-1-{[4-fluoro-6-(2-oxo-1,3-oxazolidin-3-yl)pyridin-2-yl]amino}ethyl]-1,2-dihydroquinolin-2-one] in this work.
An IC50 of 1000 to 10000 nM was found for `Cc1n[nH]c(C)c1-c1ccnc(N[C@@H](C)c2cc3cc(Cl)ccc3[nH]c2=O)c1F` [Compound I-51, 6-chloro-3-[(1S)-1-{[4-(3,5-dimethyl-1H-pyrazol-4-yl)-3-fluoropyridin-2-yl]amino}ethyl]-1,2-dihydroquinolin-2-one] in this work.
An IC50 of 1000 to 10000 nM was found for `C[C@H](Nc1nccc(-n2ccnc2)c1F)c1cc2cc(Cl)ccc2[nH]c1=O` [Compound I-37, 6-chloro-3-[(1S)-1-{[3-fluoro-4-(1H-imidazol-1-yl)pyridin-2-yl]amino}ethyl]-1,2-dihydroquinolin-2-one] in this work.
An IC50 of 1000 to 10000 nM was found for `COc1ccnc(NCc2cc3cc(Cl)ccc3[nH]c2=O)c1` [Compound I-70, 6-chloro-3-{[(4-methoxypyridin-2-yl)amino]methyl}-1,2-dihydroquinolin-2-one] in this work.
An IC50 of 100 to 1000 nM was found for `Cc1c(N2CCOC2=O)ccnc1N[C@@H](C)c1cc2cc(Cl)ccc2[nH]c1=O` [Compound I-15, 6-chloro-3-[(1S)-1-{[3-methyl-4-(2-oxo-1,3-oxazolidin-3-yl)pyridin-2-yl]amino}ethyl]-1,2-dihydroquinolin-2-one] in this work.
An IC50 of 1000 to 10000 nM was found for `O=c1[nH]c2ccc(Cl)cc2cc1CNc1cccnc1O` [Compound I-76, 6-chloro-3-{[(2-hydroxypyridin-3-yl)amino]methyl}-1,2-dihydroquinolin-2-one] in this work.
For `COc1nc(NCc2cc3cc(Cl)ccc3[nH]c2=O)ccc1C#N` [Compound I-66, 6-{[(6-chloro-2-oxo-1,2-dihydroquinolin-3-yl)methyl]amino}-2-methoxypyridine-3-carbonitrile], the IC50 was > 10000 nM.
`Cc1noc(C)c1-c1ccnc(N[C@@H](C)c2cc3cc(Cl)ccc3[nH]c2=O)c1F` [Compound I-54, 6-chloro-3-[(1S)-1-{[4-(dimethyl-1,2-oxazol-4-yl)-3-fluoropyridin-2-yl]amino}ethyl]-1,2-dihydroquinolin-2-one] was tested, and the IC50 was > 10000 nM.
`CC(C)[C@H]1COC(=O)N1c1cccc(N[C@H](C)c2cc3cc(Cl)ccc3[nH]c2=O)n1` [Compound I-20, 6-chloro-3-[(1R)-1-({6-[(4S)-2-oxo-4-(propan-2-yl)-1,3-oxazolidin-3-yl]pyridin-2-yl}amino)ethyl]-1,2-dihydroquinolin-2-one] was tested, and the IC50 was > 10000 nM.
An IC50 of 1000 to 10000 nM was found for `O=c1[nH]c2ccc(Cl)cc2cc1CNc1ccc(Cl)cn1` [Compound I-75, 6-chloro-3-{[(5-chloropyridin-2-yl)amino]methyl}-1,2-dihydroquinolin-2-one] in this work.
An IC50 of 1000 to 10000 nM was found for `COC(=O)c1cccc(NCc2cc3cc(Cl)ccc3[nH]c2=O)n1` [Compound I-73, methyl 6-{[(6-chloro-2-oxo-1,2-dihydroquinolin-3-yl)methyl]amino}pyridine-2-carboxylate] in this work.
An IC50 of 100 to 1000 nM was found for `Cc1nc(NC2(c3cc4cc(Cl)ccc4[nH]c3=O)CC2)ccc1C#N` [Compound I-31, 6-{[1-(6-chloro-2-oxo-1,2-dihydroquinolin-3-yl)cyclopropyl]amino}-2-methylpyridine-3-carbonitrile] in this work.
An IC50 of 1000 to 10000 nM was found for `N#Cc1ccc(NCc2cc3cc(Cl)ccc3[nH]c2=O)nc1C(F)(F)F` [Compound I-60, 6-{[(6-chloro-2-oxo-1,2-dihydroquinolin-3-yl)methyl]amino}-2-(trifluoromethyl)pyridine-3-carbonitrile] in this work.
An IC50 of 1000 to 10000 nM was found for `Cc1cscc1-c1ccnc(N[C@@H](C)c2cc3cc(Cl)ccc3[nH]c2=O)c1F` [Compound I-46, 6-chloro-3-[(1S)-1-{[3-fluoro-4-(4-methylthiophen-3-yl)pyridin-2-yl]amino}ethyl]-1,2-dihydroquinolin-2-one] in this work.
`CC(C)CN(C)c1nc(NCc2cc3cc(Cl)ccc3[nH]c2=O)ccc1C#N` [Compound I-65, 6-{[(6-chloro-2-oxo-1,2-dihydroquinolin-3-yl)methyl]amino}-2-[methyl(2-methylpropyl)amino]pyridine-3-carbonitrile] was tested, and the IC50 was > 10000 nM.
An IC50 of 1000 to 10000 nM was found for `Cc1c(-c2ccnc(N[C@@H](C)c3cc4cc(Cl)ccc4[nH]c3=O)c2F)cnn1C` [Compound I-45, 6-chloro-3-[(1S)-1-{[4-(1,5-dimethyl-1H-pyrazol-4-yl)-3-fluoropyridin-2-yl]amino}ethyl]-1,2-dihydroquinolin-2-one] in this work.
An IC50 of 1000 to 10000 nM was found for `C[C@H](Nc1nccc(-c2cccn2C)c1F)c1cc2cc(Cl)ccc2[nH]c1=O` [Compound I-42, 6-chloro-3-[(1S)-1-{[3-fluoro-4-(1-methyl-1H-pyrrol-2-yl)pyridin-2-yl]amino}ethyl]-1,2-dihydroquinolin-2-one] in this work.
With `C[C@H](Nc1nccc(-c2ccnn2C2CCCCO2)c1F)c1cc2cc(Cl)ccc2[nH]c1=O` (stereo partly drawn) [Compound I-55, 6-chloro-3-[(1S)-1-({3-fluoro-4-[1-(oxan-2-yl)-1H-pyrazol-5-yl]pyridin-2-yl}amino)ethyl]-1,2-dihydroquinolin-2-one] the IC50 was > 10000 nM.
An IC50 of 100 to 1000 nM was found for `Cc1cc(N2CCOC2=O)cc(N[C@@H](C)c2cc3cc(Cl)ccc3[nH]c2=O)n1` [Compound I-12, 6-chloro-3-[(1S)-1-{[6-methyl-4-(2-oxo-1,3-oxazolidin-3-yl)pyridin-2-yl]amino}ethyl]-1,2-dihydroquinolin-2-one] in this work.
An IC50 of 1000 to 10000 nM was found for `Cc1cc(NCCO)cc(N[C@@H](C)c2cc3cc(Cl)ccc3[nH]c2=O)n1` [Compound I-33, 6-chloro-3-[(1S)-1-({4-[(2-hydroxyethyl)amino]-6-methylpyridin-2-yl}amino)ethyl]-1,2-dihydroquinolin-2-one] in this work.
An IC50 of 1000 to 10000 nM was found for `Cc1ccnc(NCc2cc3cc(Cl)ccc3[nH]c2=O)c1` [Compound I-74, 6-chloro-3-{[(4-methylpyridin-2-yl)amino]methyl}-1,2-dihydroquinolin-2-one] in this work.
With `COc1nc(C#N)ccc1NCc1cc2cc(Cl)ccc2[nH]c1=O` [Compound I-61, 5-{[(6-chloro-2-oxo-1,2-dihydroquinolin-3-yl)methyl]amino}-6-methoxypyridine-2-carbonitrile] the IC50 was < 100 nM.
For `O=c1[nH]c2ccc(Cl)cc2cc1CNc1ccc(C(F)(F)F)cn1` [Compound I-77, 6-chloro-3-({[5-(trifluoromethyl)pyridin-2-yl]amino}methyl)-1,2-dihydroquinolin-2-one], the IC50 was > 10000 nM.
